For one data set, the system named is cholesterol biosynthesis. The data set can be described thus: Test C: Inhibition of cholesterol biosynthesis in vivo. The arrangement: species or system male Sprague-Dawley rats. Particulars: oral, 0.2 mg/kg. How it is done:
Male Sprague-Dawley rats weighing about 150 g were fed normal Purina chow diet and water ad libitum, and exposed to 12 hours light/12 hours dark lighting pattern
(2:00 PM -2:00 AM dark) prior to use for in vivo inhibition test of cholesterol biosynthesis. Animals were separated groups consisting of five rats as to be average mean body weight in each groups. Test compounds at dosage of 0.02-2.0 mg/kg body weight (0.4 ml/100 g body weight), were dissolved in water or suspended in 0.5% methyl cellulose and orally administered at 2-3 hours before mid-dark (8:00 PM), while cholesterol biosynthesis reaches to maximum in rats. As control, rats were orally administered only water or vehicle. At 90 minutes after sample administration, rats were injected intraperitoneally with 10 μCi of [2-^14 C]sodium acetate at volume of 0.2 ml per one. 2 Hours later, blood samples were obtained and serum were separated immediately. Total lipids were extracted according to the method of Folch et al. and saponified with EtOH-KOH. Nonsaponifiable lipids were extracted with petroleum ether and radio activity incorporated into nonsaponifiable lipids was counted.
Inhibitory activity was indicated as percent decrease of counts in testing groups (DPM/2 ml serum/2 hours) from that in control group.

In data set [1] the target is cholesterol biosynthesis in which HMG-CoA reductase serves as a rate limiting enzyme. As to the kind of experiment: Test A: Inhibition of cholesterol biosynthesis from acetate in vitro. It is filed as biochemical, male Wistar rat. Particulars: for Relative activities by Test A: based on the activities of CS-514 by Test A being evaluated to be 1. As to the method: Enzyme solution was prepared from liver of male Wistar rat billialy connulated and discharged bile for over 24 hours. Liver was cut out at mid-dark and microsome and supernatant fraction which was precipitable with 40-80% of solution of ammonium sulfate (sup fraction) were prepared from liver homogenate according to the modified method of Knauss et. al.; Kuroda, M., et. al., Biochim. Biophys. Acta, 489, 119 (1977). For assay of cholesterol biosynthesis, microsome (0.1 mg protein) and sup fraction (1.0 mg protein) were incubated for 2 hours at 37° C. in 200 μl of the reaction mixture containing ATP; 1 mM, Glutathione; 6 mM, Glucose-1phosphate; 10 mM, […]; 0.25 mM, NADP; 0.25 mM, CoA; 0.04 mM and 0.2 mM [2-14C]sodium acetate (0.2 μCi) with 4 μl of test compound solution dissolved in water or dimethyl sulfoxide. To stop reaction and saponify, 1 ml of 15% EtOH-KOH was added to the reactions and heated at 75° C. for 1 hour. Nonsaponifiable lipids were extracted with petroleum ether and incorporated ^14 C radioactivity was counted. Inhibitory activity of compounds was indicated with IC50.

Data set [2] has as its system cholesterol biosynthesis in Hep G2 cells. As to the kind of experiment: Test B-1: Inhibition of cholesterol biosynthesis in culture cells (Hep G2). It is filed as cell-based. Particulars: Homo sapiens, HepG2, 100×10^-9 M/l, [2-14C]sodium acetate added at 0 hr, read-out: Inhibition activities by Test B-1. As to the method:
Hep G2 cells at over 5th passage were seeded to 12 well plates and incubated with Dulbecco's modified Eagle (DME) medium containing 10% of fetal bovine serum (FBS) at 37° C., 5% CO2 until cells were confluent for about 7 days. Cells were exposed to the DME medium containing 5% of lipoprotein deficient serum (LpDS) prepared by ultracentrifugation method for over 24 hours. Medium was changed to 0.5 ml of fresh 5% LpDS containing DME before assay and 10 μl of test compound solution dissolved in water or DMSO were added. 0.2 μCi of [2-^14 C]sodium acetate (20 μl) was added at 0 hr(B-1) or 4 hrs(B-2) after addition of compounds. After 4 hrs further incubation with [2-^14 C] sodium acetate, medium was removed and cells were washed with phosphate buffered saline (PBS) chilled at 4° C. Cells were scraped with rubber policeman and collected to tubes with PBS and digested with 0.2 ml of 0.5 N KOH at 37° C. Aliquot of digestion was used for protein analysis and remaining was saponified with 1 ml of 15% EtOH-KOH at 75° C. for 1 hour. Nonsaponifiable lipids were extracted with petroleum ether and ^14 C radioactivity was counted. Counts were revised by cell protein and indicated with DPM/mg protein. Inhibitory activity of compounds was indicated with IC50.
With respect to the compounds of the present invention, the inhibitory activities against the cholesterol biosynthesis in which HMG-CoA reductase serves as a rate limiting enzyme, were measured by the above Test A and B. The results are shown in Tables 2 and 3.
In Table 3, the inhibition activities of the test compounds at a concentration of 100×10^-9 M/l, are shown.

The subject of another data set is ICR male mice. As to the kind of experiment: Test D: Acute toxicity. The data set is classed as in vivo. Particulars: oral, 0.5% CMC suspension, group of three mice; dose not given. As to the method: A 0.5% CMC suspension of a test compound was orally administered to ICR male mice (group of three mice). The acute toxicity was determined based on the mortality after seven days.

Results on six compounds are retold here after patent US4977161A, “Isoxazolopyridine type mevalonolactones” (Nissan Chemical Industries, Ltd., priority 1988, dated 1990).

Molecules are shown by their SMILES.

`CC[C@H](C)C(=O)O[C@H]1C[C@H](O)C=C2C=C[C@H](C)[C@H](CC[C@@H](O)C[C@@H](O)CC(=O)O)[C@H]21` [CS-514, reference compound]: the “percent decrease of counts relative to the control group (DPM/2 ml serum/2 hours)” value with cholesterol biosynthesis was found to be 34%. Moreover, in data set [1] (rat liver microsome and sup fraction, [2-14C]sodium acetate, 2 hours at 37° C.), the IC50 (commonly the concentration that inhibits the measured activity by half) worked out at 9 nM. Also, the inhibition (in general, the relative decrease from the control value, in per cent) at 0.1 µM in data set [2] turned out to be 18.4%.

`CC(C)c1nc2onc(-c3ccccc3)c2c(-c2ccc(F)cc2)c1/C=C/C(O)CC(O)CC(=O)O` (stereo not drawn) [Compound I-5-2]: the “percent decrease of counts relative to the control group (DPM/2 ml serum/2 hours)” value in the data set on cholesterol biosynthesis was determined as 34.3%. In addition, the “Relative activities by Test A” value in data set [1] is on record as 0.6. For the same compound, the “acute toxicity, mortality after seven days” value in the data set with ICR male mice was “only one animal of the three animals died”. In addition, the inhibition at 0.1 µM in data set [2] was 43.2%.

As to `CCOC(=O)CC(=O)CC(O)/C=C/c1c(C(C)C)nc2onc(C)c2c1-c1ccc(F)cc1` (stereo not drawn) [Compound II-1, Ethyl (E)-7-[4'-(4"-fluorophenyl)-3'-methyl-6'-(1"-methylethyl)isoxazolo[-5,4-b]pyridin-5-yl]-5'-hydroxy-3-oxohepto-6-enoate], the inhibition at 0.1 µM in data set [2] was 52.6%.

For the compound `CCOC(=O)CC(O)CC(O)/C=C/c1c(C(C)C)nc2onc(-c3ccccc3)c2c1-c1ccc(F)cc1` (stereo not drawn) [Compound I-1-2], the inhibition at 0.1 µM in data set [2] was 57.3%.

On to `CCOC(=O)CC(O)CC(O)/C=C/c1c(C(C)C)nc2onc(C)c2c1-c1ccc(F)cc1` (stereo not drawn) [Compound I-1-1], for which the “Relative activities by Test A” value in data set [1] turned out to be 1.6. The inhibition at 0.1 µM in data set [2] worked out at 50.1%.

As for `Cc1noc2nc(C(C)C)c(/C=C/C(O)CC(O)CC(=O)O)c(-c3ccc(F)cc3)c12` (stereo not drawn) [Compound I-5-1, Sodium (E)-7-[4'-(4"-fluorophenyl)-3'-methyl-6'-(1"-methylethyl)isoxazolo[5,4-b]pyridin-5'-yl]-3,5-dihydroxyhept-6-enoate], the “Relative activities by Test A” value in data set [1] worked out at 1.3.
